Results from ChEMBL document CHEMBL5215002, “Selective Inhibition of PTP1B by New Anthraquinone Glycosides from Knoxia valerianoides” (J Nat Prod, 2022).
Active and inactive are the calls of the source. The rule behind the calls is not given here.

Key:
[1] = target: T1, Tyrosine-protein phosphatase non-receptor type 2 (Homo sapiens, UniProt P17706); experiment: Inhibition of recombinant human TCPTP (1 to 314 residues) expressed in baculovirus-insect cells
T1 sequence (P17706 whole entry): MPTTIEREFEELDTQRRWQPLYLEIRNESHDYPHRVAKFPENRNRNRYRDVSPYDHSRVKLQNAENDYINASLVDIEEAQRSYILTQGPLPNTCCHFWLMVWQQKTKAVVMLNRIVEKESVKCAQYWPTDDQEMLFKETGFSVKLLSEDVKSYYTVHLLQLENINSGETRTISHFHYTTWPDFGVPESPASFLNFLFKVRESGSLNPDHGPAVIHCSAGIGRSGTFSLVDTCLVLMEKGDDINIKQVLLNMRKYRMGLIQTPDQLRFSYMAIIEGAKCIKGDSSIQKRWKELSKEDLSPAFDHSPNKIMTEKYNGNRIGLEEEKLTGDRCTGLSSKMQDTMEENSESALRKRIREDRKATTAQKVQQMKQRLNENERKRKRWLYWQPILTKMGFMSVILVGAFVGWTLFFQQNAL

[2] = target: T2, Tyrosine-protein phosphatase non-receptor type 1 (Homo sapiens) (UniProt P18031); experiment: Mixed type inhibition of N-terminal His-tagged recombinant human PTP1B expressed in Escherichia coli assessed as reduction in Vmax with increase in Km using varying concentrations of pNPP as substrate preincubated for 15 mins followed by substrate addition and measured after 15 mins by Lineweaver-Burk plot analysis; details: time 30.0 min
T2 sequence (whole entry): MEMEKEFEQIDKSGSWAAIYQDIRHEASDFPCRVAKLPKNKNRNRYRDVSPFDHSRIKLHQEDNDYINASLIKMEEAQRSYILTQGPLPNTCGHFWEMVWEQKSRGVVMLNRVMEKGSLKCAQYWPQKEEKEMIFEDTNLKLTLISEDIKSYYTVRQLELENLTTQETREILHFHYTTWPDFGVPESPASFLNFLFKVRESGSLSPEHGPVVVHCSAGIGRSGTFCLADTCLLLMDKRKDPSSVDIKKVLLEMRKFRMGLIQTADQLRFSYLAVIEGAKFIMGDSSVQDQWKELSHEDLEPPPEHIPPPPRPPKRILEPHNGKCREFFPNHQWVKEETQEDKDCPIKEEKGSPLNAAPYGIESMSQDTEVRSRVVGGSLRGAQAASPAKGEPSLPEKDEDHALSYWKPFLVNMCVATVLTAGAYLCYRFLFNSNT

[3] = target: T3, Tyrosine-protein phosphatase non-receptor type 1 (Homo sapiens, UniProt P18031); experiment: Mixed type inhibition of N-terminal His-tagged recombinant human PTP1B expressed in Escherichia coli using pNPP as substrate assessed as inhibition constant preincubated for 15 mins followed by substrate addition and measured after 15 mins by Dixon plot analysis
T3 sequence (P18031 whole entry): T2 sequence (whole entry)

[4] = target: T3, Tyrosine-protein phosphatase non-receptor type 1; experiment: Inhibition of N-terminal His-tagged recombinant human PTP1B expressed in Escherichia coli
[5] = species: Homo sapiens; experiment: Selectivity index, ratio of IC50 for inhibition of recombinant human TCPTP (1 to 314 residues) expressed in baculovirus infected insect cells to IC50 for inhibition of N-terminal His-tagged recombinant human PTP1B expressed in Escherichia coli
[6] = target: T4, Tyrosine-protein phosphatase non-receptor type 2 (Homo sapiens) (UniProt P17706); experiment: Inhibition of recombinant human TCPTP (1 to 314 residues) expressed in baculovirus-insect cells at 100 uM relative to control
T4 sequence (whole entry): T1 sequence (P17706 whole entry)

Compound	IC50 [1]	inhibition [2]	Ki [3]	IC50 [4]	Ratio IC50 [5]	inhibition [6]
O=C1c2ccccc2C(=O)c2c1cc(O)c(CO[C@@H]1O[C@H](CO)[C@@H](O)[C@H](O)[C@H]1O)c2O	> 100 µM	Active	3020 nM	3.86 µM	25.9	< 20%
COc1ccc2c(c1O)C(=O)c1cc(O[C@@H]3O[C@H](CO)[C@@H](O)[C@H](O)[C@H]3O)c(CO)c(O)c1C2=O				3.05 µM		
COc1ccc2c(c1O)C(=O)c1cc(O[C@@H]3O[C@H](CO[C@@H]4OC[C@@H](O)[C@H](O)[C@H]4O)[C@@H](O)[C@H](O)[C@H]3O)c(C)c(O)c1C2=O	> 100 µM			7.28 µM	13.7	40%
COc1ccc2c(c1O)C(=O)c1cc(O[C@@H]3O[C@H](CO[C@@H]4OC[C@@H](O)[C@H](O)[C@H]4O)[C@@H](O)[C@H](O)[C@H]3O)c(CO)c(O)c1C2=O				3.52 µM		
COc1ccc2c(c1)C(=O)c1cc(O[C@@H]3O[C@H](CO[C@@H]4OC[C@@H](O)[C@H](O)[C@H]4O)[C@@H](O)[C@H](O)[C@H]3O)c(C)c(O)c1C2=O				9.04 µM		
SODIUM ORTHOVANAD					0.67	
Cc1c(O[C@@H]2O[C@H](CO[C@@H]3OC[C@@H](O)[C@H](O)[C@H]3O)[C@@H](O)[C@H](O)[C@H]2O)cc2c(c1O)C(=O)c1ccccc1C2=O				13.7 µM		
COc1ccc2c(c1)C(=O)c1cc(O[C@@H]3O[C@H](CO[C@@H]4OC[C@@H](O)[C@H](O)[C@H]4O)[C@@H](O)[C@H](O)[C@H]3O)c(CO)c(O)c1C2=O	> 100 µM			11.3 µM	8.9	< 20%
COc1ccc2c(c1)C(=O)c1cc(O)c(CO[C@@H]3O[C@H](CO[C@@H]4OC[C@@H](O)[C@H](O)[C@H]4O)[C@@H](O)[C@H](O)[C@H]3O)c(O)c1C2=O				7.52 µM		
O=C1c2ccccc2C(=O)c2c1cc(O[C@@H]1O[C@H](CO)[C@@H](O)[C@H](O)[C@H]1O)c(CO)c2O				10.8 µM		
COc1ccc2c(c1)C(=O)c1cc(O[C@@H]3O[C@H](CO)[C@@H](O)[C@H](O)[C@H]3O)c(CO)c(O)c1C2=O	> 100 µM			1.56 µM	64.1	< 20%
Cc1c(O[C@@H]2O[C@H](CO[C@@H]3OC[C@@H](O)[C@H](O)[C@H]3O)[C@@H](O)[C@H](O)[C@H]2O)cc2c(c1O)C(=O)c1ccc(O)c(O)c1C2=O	78 µM	Active	1210 nM	1.05 µM	74.3	
